Laboratory results published in ChEMBL document CHEMBL1140474, “Enhancement of oral drug absorption-effect of lipid conjugation on the enzymatic stability and intestinal permeability of l-Glu-l-Trp-NH(2)” (Bioorg Med Chem, 2007).
Where a SMILES comes first, the peptide text is derived from it. [ ]: non-standard residue; d: D form. ξ: configuration not given here. ξGly(dodecyl) = CCCCCCCCCCCCC(N)C(=O)O; ξGly(decyl) = CCCCCCCCCCC(N)C(=O)O; ξGly(octyl) = CCCCCCCCC(N)C(=O)O; ξAoc(2) = CCCCCCC(N)C(=O)O

Columns and labels:
[1] = Apparent permeability across human Caco-2 cells; format: ADME, cell-based
[2] = Stability in human Caco-2 homogenates after 1 hr; format: ADME; details: Caco-2 cell homogenates, read-out: Stability
[3] = Stability in human Caco-2 homogenates after 2 hrs; format: ADME; details: Caco-2 cell homogenates, read-out: Stability
Caco-2 [4] = assay: Stability in human Caco-2 homogenates after 20 mins; format: ADME; details: caco-2, 20 min
Caco-2 [5] = assay: Stability in human Caco-2 homogenates after 10 mins; format: ADME; details: caco-2, 10 min

SMILES | Papp [1] | remaining at 1 h [2] | remaining at 2 h [3] | Activity (Caco-2 [4]) | Stability (Caco-2 [5])
CCCCCCCCCCC(N)C(=O)N[C@@H](CCC(=O)O)C(=O)N[C@@H](Cc1c[nH]c2ccccc12)C(N)=O (some centres not stated) | 9.26 ×10⁻⁶ cm/s | 75% | 65% | – | –
CCCCCCCCCCC(N)C(=O)NC(CCCCCCCCCC)C(=O)N[C@@H](CCC(=O)O)C(=O)N[C@@H](Cc1c[nH]c2ccccc12)C(N)=O (some centres not stated) (H-[ξGly(decyl)][ξGly(decyl)]EW-NH2) | 3.09 ×10⁻⁶ cm/s | – | 90% | Not Active | –
CCCCCCCCCCCCC(N)C(=O)N[C@@H](CCC(=O)O)C(=O)N[C@@H](Cc1c[nH]c2ccccc12)C(N)=O (some centres not stated) | 1.02 ×10⁻⁶ cm/s | 75% | 65% | – | –
CCCCCCC(NC(=O)[C@@H](N)CCC(=O)O)C(=O)N[C@@H](Cc1c[nH]c2ccccc12)C(N)=O (some centres not stated) (H-Glu-[ξAoc(2)]-Trp-NH2) | 3.83 ×10⁻⁶ cm/s | – | 40% | – | –
CCCCCCCCC(NC(=O)[C@@H](N)CCC(=O)O)C(=O)N[C@@H](Cc1c[nH]c2ccccc12)C(N)=O (some centres not stated) | 3.99 ×10⁻⁶ cm/s | – | 40% | – | 15%
CCCCCCC(N)C(=O)NC(CCCCCC)C(=O)N[C@@H](CCC(=O)O)C(=O)N[C@@H](Cc1c[nH]c2ccccc12)C(N)=O (some centres not stated) (H-[ξAoc(2)][ξAoc(2)]EW-NH2) | 8.32 ×10⁻⁶ cm/s | – | 90% | Not Active | –
CCCCCCCCC(N)C(=O)NC(CCCCCCCC)C(=O)N[C@@H](CCC(=O)O)C(=O)N[C@@H](Cc1c[nH]c2ccccc12)C(N)=O (some centres not stated) (H-[ξGly(octyl)][ξGly(octyl)]EW-NH2) | 1.79 ×10⁻⁶ cm/s | – | 40% | Not Active | 15%
CCCCCCC(N)C(=O)N[C@@H](CCC(=O)O)C(=O)N[C@@H](Cc1c[nH]c2ccccc12)C(N)=O (stereo partly drawn) (H-[ξAoc(2)]-Glu-Trp-NH2) | 4.84 ×10⁻⁶ cm/s | – | 40% | – | –
CCCCCCCCC(N)C(=O)N[C@@H](CCC(=O)O)C(=O)N[C@@H](Cc1c[nH]c2ccccc12)C(N)=O (some centres not stated) | 1.55 ×10⁻⁶ cm/s | – | 40% | – | –
CCCCCCCCCCCCC(N)C(=O)NC(CCCCCCCCCCCC)C(=O)N[C@@H](CCC(=O)O)C(=O)N[C@@H](Cc1c[nH]c2ccccc12)C(N)=O (some centres not stated) (H-[ξGly(dodecyl)][ξGly(dodecyl)]EW-NH2) | 2.77 ×10⁻⁶ cm/s | – | 90% | Not Active | –
NC(=O)[C@H](Cc1c[nH]c2ccccc12)NC(=O)[C@@H](N)CCC(=O)O (H-Glu-Trp-NH2) | 7.76 ×10⁻⁶ cm/s | – | 35% | – | –
CCCCCCCCCCC(NC(=O)[C@@H](N)CCC(=O)O)C(=O)N[C@@H](Cc1c[nH]c2ccccc12)C(N)=O (some centres not stated) | 4.66 ×10⁻⁶ cm/s | – | 40% | – | –
